The source of these data is US10052320B2, “Substituted quinoxalines as FGFR kinase inhibitors” (ASTEX THERAPEUTICS LIMITED, priority 2011, dated 2018).

Like-named read-outs stand apart in the source and are kept apart here.

For assay [1], the target named is Ba/F3-FGFR3-transfected cells (Homo sapiens, UniProt P22607). Put plainly: Ba/F3-FGFR3 (minus IL3) cellular proliferation assay, Alamar Blue. The class given is cell-based. Particulars: for BAF3-FGFR 3 (MIN IL3) 96 well pIC50: minus IL3, 96 well; for BAF3-FGFR 3 (MIN IL3) 384 well pIC50: minus IL3, 384 well. The method in brief:
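With or without 10 ng/ml murine IL3, transfected Ba/F3-FGFR3 cells in serum-containing RPMI-1640 receive compound for 24 h at 37 °C. Growth is then gauged by resazurin conversion over 4 h, read as relative fluorescence units.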

The next assay concerns the target KDR (h) (VEGFR2) (Homo sapiens, UniProt P35968). The assay can be described thus: KDR (VEGFR2) (enzymatic assay), TR-FRET. The class given is biochemical. The method in brief:
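Low-ATP (3 μM) TR-FRET kinase assay using 500 nM Btn-Flt3 peptide and 150 ng/ml enzyme, run 2 h at room temperature with 6 mM MnCl2 and 0.1 mM Na3VO4. Signal from Eu-anti-P-Tyr/SA-XL-665 is recorded in RFU.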
On the technique in general: In TR-FRET formats the signal depends on donor and acceptor labels being close together.

For another assay, the target named is FGFR3 (h) (Homo sapiens, UniProt P22607). Put plainly: FGFR3 (enzymatic assay), TR-FRET. The class given is biochemical. The settings on record: read-out: FGFR 3 pIC50 (converted). On the procedure: In a final reaction volume of 30 μL, FGFR3 (h) (40 ng/ml) was incubated with 50 mM HEPES pH 7.5, 6 mM MnCl2, 1 mM DTT, 0.1 mM Na3VO4, 0.01% Triton-X-100, 500 nM Btn-Flt3 and 25 μM ATP in the presence of compound (1% DMSO final). […] Time-Resolved Fluorescence Resonance Energy Transfer (TR-FRET) signal (ex340 nm. Em 620 nm, em 655 nm) was measured afterwards and results are expressed in RFU (Relative Fluorescence Units).
FGFR3 (h), sequence (P22607 23-806): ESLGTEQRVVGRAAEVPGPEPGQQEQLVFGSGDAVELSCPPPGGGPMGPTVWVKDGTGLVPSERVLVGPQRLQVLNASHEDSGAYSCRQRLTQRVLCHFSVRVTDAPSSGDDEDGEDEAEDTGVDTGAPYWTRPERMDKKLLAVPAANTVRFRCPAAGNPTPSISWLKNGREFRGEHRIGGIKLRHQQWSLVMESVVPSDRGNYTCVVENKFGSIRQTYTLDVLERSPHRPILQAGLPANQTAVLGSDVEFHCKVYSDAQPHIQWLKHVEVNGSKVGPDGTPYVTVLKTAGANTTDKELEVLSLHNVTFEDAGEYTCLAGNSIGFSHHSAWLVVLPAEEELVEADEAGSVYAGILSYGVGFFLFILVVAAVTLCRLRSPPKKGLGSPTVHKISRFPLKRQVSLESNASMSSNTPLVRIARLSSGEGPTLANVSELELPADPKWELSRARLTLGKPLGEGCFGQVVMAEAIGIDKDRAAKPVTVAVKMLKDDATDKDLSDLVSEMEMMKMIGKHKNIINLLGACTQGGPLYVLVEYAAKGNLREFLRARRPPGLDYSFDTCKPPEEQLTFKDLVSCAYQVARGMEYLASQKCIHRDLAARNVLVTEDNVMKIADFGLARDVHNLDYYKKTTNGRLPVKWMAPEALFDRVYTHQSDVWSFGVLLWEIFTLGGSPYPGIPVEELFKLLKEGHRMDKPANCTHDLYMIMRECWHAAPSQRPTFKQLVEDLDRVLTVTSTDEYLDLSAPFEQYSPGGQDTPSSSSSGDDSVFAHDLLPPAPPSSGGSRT

Assay [2] addresses Ba/F3-FGFR4-transfected cells (Homo sapiens, UniProt P22455). Put plainly: Ba/F3-FGFR4 cellular proliferation assay, Alamar Blue. The assay is classed as cell-based. Summed up:
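Alamar Blue fluorescence (540/590 nm, 4 h development) measured growth of FGFR4-transfected Ba/F3 cells after 24 h compound treatment at 37° C. Cells were seeded at 20000/well in RPMI-1640, 10% FBS.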
On the technique in general: The colour change of resazurin is a common sign of viable cells or microbes.

The target in a further assay is FGFR2 (h) (Homo sapiens, UniProt P21802). The assay can be described thus: FGFR2 (enzymatic assay), TR-FRET. Particulars: read-out: FGFR 2 pIC50 (converted). The assay is classed as biochemical. Here is the method: In a final reaction volume of 30 μL, FGFR2 (h) (150 ng/ml) was incubated with 50 mM HEPES pH 7.5, 6 mM MnCl2, 1 mM DTT, 0.1 mM Na3VO4, 0.01% Triton-X-100, 500 nM Btn-Flt3 and 0.4 μM ATP in the presence of compound (1% DMSO final). […] Time-Resolved Fluorescence Resonance Energy Transfer (TR-FRET) signal (ex340 nm. Em 620 nm, em 655 nm) was measured afterwards and results are expressed in (Relative Fluorescence Units).
FGFR2 (h), sequence (P21802 22-821): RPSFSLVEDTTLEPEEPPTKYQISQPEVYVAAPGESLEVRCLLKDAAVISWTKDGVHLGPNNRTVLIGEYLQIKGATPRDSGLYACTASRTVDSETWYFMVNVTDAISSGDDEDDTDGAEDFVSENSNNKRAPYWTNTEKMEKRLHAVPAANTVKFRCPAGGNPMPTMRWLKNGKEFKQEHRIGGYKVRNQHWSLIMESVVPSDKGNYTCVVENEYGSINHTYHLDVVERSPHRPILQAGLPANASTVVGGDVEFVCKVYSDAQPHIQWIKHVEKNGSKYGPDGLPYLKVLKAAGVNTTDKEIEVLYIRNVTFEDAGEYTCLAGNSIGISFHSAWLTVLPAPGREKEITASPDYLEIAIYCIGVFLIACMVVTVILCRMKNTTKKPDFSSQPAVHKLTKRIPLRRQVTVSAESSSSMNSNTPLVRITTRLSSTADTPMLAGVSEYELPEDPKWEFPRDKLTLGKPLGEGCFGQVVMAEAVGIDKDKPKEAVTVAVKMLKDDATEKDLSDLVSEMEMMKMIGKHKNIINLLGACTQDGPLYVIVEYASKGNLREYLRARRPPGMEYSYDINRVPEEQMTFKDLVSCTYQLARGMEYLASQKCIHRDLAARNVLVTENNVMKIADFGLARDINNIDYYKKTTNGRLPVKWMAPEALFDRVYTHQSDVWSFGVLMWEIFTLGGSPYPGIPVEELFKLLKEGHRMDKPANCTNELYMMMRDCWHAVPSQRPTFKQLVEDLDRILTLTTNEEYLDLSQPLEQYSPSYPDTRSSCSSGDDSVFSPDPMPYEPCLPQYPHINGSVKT

In assay [3] the target is Ba/F3-KDR-transfected cells (Homo sapiens, UniProt P35968). The assay can be described thus: Ba/F3-KDR (minus IL3) cellular proliferation assay, Alamar Blue. The class given is cell-based. Summed up: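 Measured with and without 10 ng/ml murine IL3: Ba/F3-KDR cells treated 24 h with compound, then 4 h Alamar Blue, fluorescence read at 540/590 nm.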
Ba/F3-KDR-transfected cells, sequence (P35968 whole entry, change not shown): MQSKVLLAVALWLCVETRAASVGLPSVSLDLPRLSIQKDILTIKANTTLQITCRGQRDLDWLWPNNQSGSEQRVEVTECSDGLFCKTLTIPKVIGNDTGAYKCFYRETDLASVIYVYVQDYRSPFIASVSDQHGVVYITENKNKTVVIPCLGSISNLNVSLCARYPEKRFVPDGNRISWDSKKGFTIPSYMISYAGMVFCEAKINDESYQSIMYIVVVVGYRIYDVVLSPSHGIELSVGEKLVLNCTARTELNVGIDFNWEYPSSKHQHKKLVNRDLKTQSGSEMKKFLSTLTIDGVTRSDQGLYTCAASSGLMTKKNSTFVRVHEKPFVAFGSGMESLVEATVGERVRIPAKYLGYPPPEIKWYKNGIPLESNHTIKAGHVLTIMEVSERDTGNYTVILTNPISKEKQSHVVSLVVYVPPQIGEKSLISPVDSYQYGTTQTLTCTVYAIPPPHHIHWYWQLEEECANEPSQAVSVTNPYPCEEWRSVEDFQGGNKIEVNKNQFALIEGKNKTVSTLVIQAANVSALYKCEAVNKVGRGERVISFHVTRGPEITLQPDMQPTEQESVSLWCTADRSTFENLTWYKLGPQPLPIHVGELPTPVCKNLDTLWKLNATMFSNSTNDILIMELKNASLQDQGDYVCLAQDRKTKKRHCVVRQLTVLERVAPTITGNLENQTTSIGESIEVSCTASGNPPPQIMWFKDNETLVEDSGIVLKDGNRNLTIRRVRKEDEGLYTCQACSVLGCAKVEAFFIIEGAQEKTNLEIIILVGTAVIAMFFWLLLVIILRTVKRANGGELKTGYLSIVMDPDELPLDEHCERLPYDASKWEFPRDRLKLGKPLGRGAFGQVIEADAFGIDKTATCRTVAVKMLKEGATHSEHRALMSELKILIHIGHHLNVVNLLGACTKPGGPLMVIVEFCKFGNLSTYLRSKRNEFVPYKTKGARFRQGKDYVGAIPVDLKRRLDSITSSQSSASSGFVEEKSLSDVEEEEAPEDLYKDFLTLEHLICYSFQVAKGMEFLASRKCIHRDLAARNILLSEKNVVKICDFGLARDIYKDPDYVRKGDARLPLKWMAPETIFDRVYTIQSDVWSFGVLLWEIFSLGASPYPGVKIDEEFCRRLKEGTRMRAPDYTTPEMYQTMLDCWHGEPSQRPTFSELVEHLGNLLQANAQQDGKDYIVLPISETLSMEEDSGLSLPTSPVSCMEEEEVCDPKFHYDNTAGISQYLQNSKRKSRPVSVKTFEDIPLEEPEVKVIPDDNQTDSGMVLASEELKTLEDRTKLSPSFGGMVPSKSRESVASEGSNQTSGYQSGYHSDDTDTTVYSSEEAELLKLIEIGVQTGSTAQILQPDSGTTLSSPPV

KDR (h) (VEGFR2), sequence (P35968 20-1356): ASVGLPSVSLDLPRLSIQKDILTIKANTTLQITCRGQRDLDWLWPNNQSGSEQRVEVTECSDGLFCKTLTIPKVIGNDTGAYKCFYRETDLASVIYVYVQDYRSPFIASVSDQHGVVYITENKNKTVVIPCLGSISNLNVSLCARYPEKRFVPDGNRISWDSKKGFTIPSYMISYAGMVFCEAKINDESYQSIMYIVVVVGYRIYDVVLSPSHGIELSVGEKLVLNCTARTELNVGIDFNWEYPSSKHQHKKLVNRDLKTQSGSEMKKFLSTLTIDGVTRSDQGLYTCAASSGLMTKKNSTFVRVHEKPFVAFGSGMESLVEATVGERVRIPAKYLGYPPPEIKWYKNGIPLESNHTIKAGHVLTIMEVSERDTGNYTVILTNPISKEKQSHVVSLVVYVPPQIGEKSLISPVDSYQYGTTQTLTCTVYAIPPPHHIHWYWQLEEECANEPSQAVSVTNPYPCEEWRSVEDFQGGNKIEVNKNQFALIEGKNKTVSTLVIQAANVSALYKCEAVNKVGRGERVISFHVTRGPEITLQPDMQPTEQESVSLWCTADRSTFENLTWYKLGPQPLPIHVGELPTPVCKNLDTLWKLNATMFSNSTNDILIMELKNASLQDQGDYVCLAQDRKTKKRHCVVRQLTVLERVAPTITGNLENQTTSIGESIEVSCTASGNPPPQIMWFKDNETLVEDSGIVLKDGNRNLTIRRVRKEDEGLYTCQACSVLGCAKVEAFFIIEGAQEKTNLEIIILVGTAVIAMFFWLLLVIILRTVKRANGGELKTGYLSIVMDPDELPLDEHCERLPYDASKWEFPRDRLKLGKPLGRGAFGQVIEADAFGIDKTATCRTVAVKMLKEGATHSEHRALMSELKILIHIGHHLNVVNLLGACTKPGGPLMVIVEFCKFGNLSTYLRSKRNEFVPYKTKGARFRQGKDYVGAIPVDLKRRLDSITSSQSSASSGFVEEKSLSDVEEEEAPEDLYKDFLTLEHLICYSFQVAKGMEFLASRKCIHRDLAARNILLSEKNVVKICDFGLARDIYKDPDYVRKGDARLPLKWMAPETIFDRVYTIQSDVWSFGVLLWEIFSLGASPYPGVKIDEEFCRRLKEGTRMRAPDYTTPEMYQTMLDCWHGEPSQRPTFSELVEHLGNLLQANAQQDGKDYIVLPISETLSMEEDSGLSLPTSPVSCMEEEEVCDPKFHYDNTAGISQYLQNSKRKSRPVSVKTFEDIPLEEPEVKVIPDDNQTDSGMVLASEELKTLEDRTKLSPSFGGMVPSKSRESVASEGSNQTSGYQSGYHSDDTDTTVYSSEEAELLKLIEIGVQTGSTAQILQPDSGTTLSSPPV
Ba/F3-FGFR3-transfected cells, sequence (P22607 whole entry, change not shown): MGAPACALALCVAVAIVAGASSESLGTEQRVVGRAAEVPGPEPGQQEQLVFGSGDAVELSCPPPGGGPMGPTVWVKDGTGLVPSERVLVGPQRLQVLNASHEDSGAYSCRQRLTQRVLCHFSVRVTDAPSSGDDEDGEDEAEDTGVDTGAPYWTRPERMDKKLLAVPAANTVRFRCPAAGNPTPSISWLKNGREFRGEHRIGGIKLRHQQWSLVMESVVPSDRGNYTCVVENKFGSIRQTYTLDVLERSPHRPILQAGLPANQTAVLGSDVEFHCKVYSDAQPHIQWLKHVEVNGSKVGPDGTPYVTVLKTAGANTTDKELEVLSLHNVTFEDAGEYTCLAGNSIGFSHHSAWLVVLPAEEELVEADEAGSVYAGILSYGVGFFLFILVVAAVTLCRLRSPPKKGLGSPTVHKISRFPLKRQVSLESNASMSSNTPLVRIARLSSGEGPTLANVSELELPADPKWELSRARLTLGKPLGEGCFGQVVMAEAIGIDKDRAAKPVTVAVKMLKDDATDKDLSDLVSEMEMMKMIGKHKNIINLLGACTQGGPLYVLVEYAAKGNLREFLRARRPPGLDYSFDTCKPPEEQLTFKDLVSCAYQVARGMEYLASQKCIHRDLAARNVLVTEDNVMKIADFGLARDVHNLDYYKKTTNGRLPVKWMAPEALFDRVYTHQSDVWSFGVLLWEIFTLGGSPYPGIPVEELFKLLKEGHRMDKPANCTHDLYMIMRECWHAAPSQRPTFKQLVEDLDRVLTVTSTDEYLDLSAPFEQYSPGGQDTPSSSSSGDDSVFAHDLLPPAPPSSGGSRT

As to `COc1cc(OC)cc(N(CC2CC2)c2ccc3ncc(NC(=O)c4ccc(F)cc4)nc3c2)c1` [Compound 28], the “BAF3-FGFR 3 (MIN IL3) 96 well pIC50” value in assay [1] is listed as <5. The “BAF3-FGFR 3 (MIN IL3) 384 well pIC50” value in assay [1] is recorded as <5. For the same compound, the IC50 at KDR (h) (VEGFR2) is > 10 µM; at FGFR3 (h) it was 1.2 µM; at FGFR2 (h) it was 6.17 µM. Further, in assay [2], the “BAF3-FGFR4 pIC50” value is <5. In assay [3] (minus IL3), the “BAF3-KDR (MIN IL3) 384 well pIC50” value was <5.

On to `COc1cc(OC)cc(N(CCNC(C)C)c2ccc3ncc(N4CCC(CN)CC4)nc3c2)c1` [Compound 67], for which the “BAF3-FGFR 3 (MIN IL3) 384 well pIC50” value in assay [1] was determined as 5.83. The IC50 at KDR (h) (VEGFR2) was 0.447 µM; at FGFR3 (h) it was 0.0166 µM; on FGFR2 (h), 0.00631 µM. In assay [2], the “BAF3-FGFR4 pIC50” value is reported as 6.2. Further, the “BAF3-KDR (MIN IL3) 384 well pIC50” value in assay [3] (minus IL3) came to 5.

`COc1cc(OC)cc(N(CCO)c2ccc3ncc(/C(C)=N/OC(C)(C)C)nc3c2)c1` [Compound 171]: in assay [1], the “BAF3-FGFR 3 (MIN IL3) 384 well pIC50” value is listed as <5. Besides, the IC50 at KDR (h) (VEGFR2) was > 1 µM; on FGFR3 (h), 0.501 µM; at FGFR2 (h), 0.724 µM. Further, the “BAF3-FGFR4 pIC50” value in assay [2] is on record as <5. Moreover, the “BAF3-KDR (MIN IL3) 384 well pIC50” value in assay [3] (minus IL3) is <5.

As to `COc1cc(OC)cc(N(CC2CC2)c2ccc3ncc(-c4ccc5c(c4)OCO5)nc3c2)c1` [Compound 87], the “BAF3-FGFR 3 (MIN IL3) 384 well pIC50” value in assay [1] is reported as <5.4. For the same compound, the IC50 was > 10 µM at KDR (h) (VEGFR2), 0.209 µM on FGFR3 (h) and 0.955 µM at FGFR2 (h). Also, the “BAF3-FGFR4 pIC50” value in assay [2] (384 well) is recorded as <5. Moreover, the “BAF3-KDR (MIN IL3) 384 well pIC50” value in assay [3] (minus IL3, 384 well) is given as <5.4.

Regarding `CNc1ccc(-c2cnc3ccc(N(CCCNCC(F)(F)F)c4cc(OC)cc(OC)c4)cc3n2)cn1` [Compound 129], the “BAF3-FGFR 3 (MIN IL3) 384 well pIC50” value in assay [1] was 5.89. Besides, the IC50 against KDR (h) (VEGFR2) was 0.363 µM; on FGFR3 (h), 0.0525 µM; on FGFR2 (h), 0.0372 µM. Moreover, the “BAF3-FGFR4 pIC50” value in assay [2] amounted to 5.4. Further, in assay [3] (minus IL3), the “BAF3-KDR (MIN IL3) 384 well pIC50” value was <5.

Regarding `COc1cc(OC)cc(N(CC2CC2)c2ccc3ncc(-c4ccnc(N5CCN(C)CC5)c4)nc3c2)c1` [Compound 37], in assay [1], the “BAF3-FGFR 3 (MIN IL3) 96 well pIC50” value was found to be 5.77. In addition, the “BAF3-FGFR 3 (MIN IL3) 384 well pIC50” value in assay [1] is on record as ~5.26. Moreover, the IC50 was 1.38 µM at KDR (h) (VEGFR2), 0.0363 µM on FGFR3 (h) and 0.0955 µM on FGFR2 (h). Also, the “BAF3-FGFR4 pIC50” value in assay [2] (384 well) turned out to be 5.3. Besides, the “BAF3-KDR (MIN IL3) 384 well pIC50” value in assay [3] (minus IL3, 384 well) is reported as <5.

In the case of `COc1cc(OC)cc(N(CCO)c2ccc3ncc(-c4ccccc4CCO)nc3c2)c1` [Compound 151], the “BAF3-FGFR 3 (MIN IL3) 384 well pIC50” value in assay [1] amounted to 5.11. Moreover, the IC50 at KDR (h) (VEGFR2) is > 1 µM; on FGFR3 (h), 0.2 µM; on FGFR2 (h) it was 0.513 µM. Besides, the “BAF3-FGFR4 pIC50” value in assay [2] was <5. The “BAF3-KDR (MIN IL3) 384 well pIC50” value in assay [3] (minus IL3) is on record as <5.

In the case of `COc1cc(OC)cc(N(CCCO)c2ccc3ncc(-c4ccnc(F)c4)nc3c2)c1` [Compound 142], the “BAF3-FGFR 3 (MIN IL3) 384 well pIC50” value in assay [1] is given as 5.85. Besides, the IC50 against KDR (h) (VEGFR2) is 0.347 µM; on FGFR3 (h), 0.00741 µM; on FGFR2 (h) it was 0.0251 µM. Besides, the “BAF3-FGFR4 pIC50” value in assay [2] was found to be 5.6. In addition, the “BAF3-KDR (MIN IL3) 384 well pIC50” value in assay [3] (minus IL3) is listed as <5.

Consider `COc1cc(OC)cc(N(CCNC(C)C)c2ccc3ncc(-n4cnc(COC(C)=O)c4)nc3c2)c1` [Compound 167], for which the “BAF3-FGFR 3 (MIN IL3) 384 well pIC50” value in assay [1] is recorded as 7.09. Moreover, the IC50 is 0.251 µM against KDR (h) (VEGFR2), 0.011 µM on FGFR3 (h) and 0.00776 µM on FGFR2 (h). Further, the “BAF3-FGFR4 pIC50” value in assay [2] was found to be 6.4. For the same compound, the “BAF3-KDR (MIN IL3) 384 well pIC50” value in assay [3] (minus IL3) is <5.

With `COc1cc(OC)cc(N(CCO)c2ccc3ncc(C4CCN(C(=O)OC(C)(C)C)CC4)nc3c2)c1` [Compound 185], in assay [1], the “BAF3-FGFR 3 (MIN IL3) 384 well pIC50” value is given as 5.01. Further, the results for the IC50 at KDR (h) (VEGFR2), at FGFR3 (h) and at FGFR2 (h) were > 1 µM, 0.11 µM and 0.214 µM, respectively. Also, in assay [2], the “BAF3-FGFR4 pIC50” value is <5. The “BAF3-KDR (MIN IL3) 384 well pIC50” value in assay [3] (minus IL3) is on record as <5.

On to `COCC(CN(c1cc(OC)cc(OC)c1)c1ccc2ncc(-c3cccnc3)nc2c1)OC(C)=O` (single isomer, unassigned) [Compound 52], for which, in assay [1], the “BAF3-FGFR 3 (MIN IL3) 384 well pIC50” value is reported as ~6.17. The IC50 at KDR (h) (VEGFR2) was > 1 µM; on FGFR3 (h), 0.0288 µM; at FGFR2 (h), 0.0912 µM. Besides, in assay [2], the “BAF3-FGFR4 pIC50” value was 5.2. In assay [3] (minus IL3), the “BAF3-KDR (MIN IL3) 384 well pIC50” value is reported as <5.
